Test results from patent US9079902B2, “Heteroaryl sodium channel inhibitors” (AMGEN INC., priority 2011, dated 2015).

Experiments:
[1] = biological target: Nav 1.7 (Homo sapiens (Human), UniProt Q15858); experiment: Nav 1.7 in vitro assay (IonWorks Quattro population patch-clamp); format: cell-based; details: 293 cells stably transfected with Nav 1.7; 26th pulse to -20 mV, 5 Hz
Description: (§1) Nav 1.7 and Nav 1.5 In Vitro Assay
(§2) 293 cells stably transfected with either Nav 1.7 or with Nav 1.5 were recorded in population patch-clamp mode with the IonWorks® Quattro automated electrophysiology system in accordance with the manufacturer's specifications (Molecular Devices, LLC, Sunnyvale, Calif.). Sodium channel currents were measured in response to a train of depolarizations that induced successively greater inactivation.
(§3) Cells were held at −110 mV for three seconds (Nav 1.7) or half a second (Nav 1.5) from a holding voltage of −15 mV, then put through a series of 26 pulses of 150 msec duration to −20 mV at a frequency of 5 Hz. Cells were then left unclamped for a period of 3 to 8 minutes while a single concentration of test compound was added. Cells were then reclamped and put through the same voltage protocol. Current at the end of the 26th pulse to −20 mV was subtracted from the peak current evoked by the 26th pulse to −20 mV to correct for leak current. Percent block was calculated for each concentration in duplicate, and IC50 curves were fitted to percent block as a function of concentration.

[2] = biological target: Nav 1.5 (Homo sapiens (Human), UniProt Q14524); experiment: Nav 1.5 in vitro assay (IonWorks Quattro population patch-clamp); format: cell-based; details: 293 cells stably transfected with Nav 1.5; 26th pulse to -20 mV, 5 Hz
Nav 1.5, sequence (Q14524 whole entry): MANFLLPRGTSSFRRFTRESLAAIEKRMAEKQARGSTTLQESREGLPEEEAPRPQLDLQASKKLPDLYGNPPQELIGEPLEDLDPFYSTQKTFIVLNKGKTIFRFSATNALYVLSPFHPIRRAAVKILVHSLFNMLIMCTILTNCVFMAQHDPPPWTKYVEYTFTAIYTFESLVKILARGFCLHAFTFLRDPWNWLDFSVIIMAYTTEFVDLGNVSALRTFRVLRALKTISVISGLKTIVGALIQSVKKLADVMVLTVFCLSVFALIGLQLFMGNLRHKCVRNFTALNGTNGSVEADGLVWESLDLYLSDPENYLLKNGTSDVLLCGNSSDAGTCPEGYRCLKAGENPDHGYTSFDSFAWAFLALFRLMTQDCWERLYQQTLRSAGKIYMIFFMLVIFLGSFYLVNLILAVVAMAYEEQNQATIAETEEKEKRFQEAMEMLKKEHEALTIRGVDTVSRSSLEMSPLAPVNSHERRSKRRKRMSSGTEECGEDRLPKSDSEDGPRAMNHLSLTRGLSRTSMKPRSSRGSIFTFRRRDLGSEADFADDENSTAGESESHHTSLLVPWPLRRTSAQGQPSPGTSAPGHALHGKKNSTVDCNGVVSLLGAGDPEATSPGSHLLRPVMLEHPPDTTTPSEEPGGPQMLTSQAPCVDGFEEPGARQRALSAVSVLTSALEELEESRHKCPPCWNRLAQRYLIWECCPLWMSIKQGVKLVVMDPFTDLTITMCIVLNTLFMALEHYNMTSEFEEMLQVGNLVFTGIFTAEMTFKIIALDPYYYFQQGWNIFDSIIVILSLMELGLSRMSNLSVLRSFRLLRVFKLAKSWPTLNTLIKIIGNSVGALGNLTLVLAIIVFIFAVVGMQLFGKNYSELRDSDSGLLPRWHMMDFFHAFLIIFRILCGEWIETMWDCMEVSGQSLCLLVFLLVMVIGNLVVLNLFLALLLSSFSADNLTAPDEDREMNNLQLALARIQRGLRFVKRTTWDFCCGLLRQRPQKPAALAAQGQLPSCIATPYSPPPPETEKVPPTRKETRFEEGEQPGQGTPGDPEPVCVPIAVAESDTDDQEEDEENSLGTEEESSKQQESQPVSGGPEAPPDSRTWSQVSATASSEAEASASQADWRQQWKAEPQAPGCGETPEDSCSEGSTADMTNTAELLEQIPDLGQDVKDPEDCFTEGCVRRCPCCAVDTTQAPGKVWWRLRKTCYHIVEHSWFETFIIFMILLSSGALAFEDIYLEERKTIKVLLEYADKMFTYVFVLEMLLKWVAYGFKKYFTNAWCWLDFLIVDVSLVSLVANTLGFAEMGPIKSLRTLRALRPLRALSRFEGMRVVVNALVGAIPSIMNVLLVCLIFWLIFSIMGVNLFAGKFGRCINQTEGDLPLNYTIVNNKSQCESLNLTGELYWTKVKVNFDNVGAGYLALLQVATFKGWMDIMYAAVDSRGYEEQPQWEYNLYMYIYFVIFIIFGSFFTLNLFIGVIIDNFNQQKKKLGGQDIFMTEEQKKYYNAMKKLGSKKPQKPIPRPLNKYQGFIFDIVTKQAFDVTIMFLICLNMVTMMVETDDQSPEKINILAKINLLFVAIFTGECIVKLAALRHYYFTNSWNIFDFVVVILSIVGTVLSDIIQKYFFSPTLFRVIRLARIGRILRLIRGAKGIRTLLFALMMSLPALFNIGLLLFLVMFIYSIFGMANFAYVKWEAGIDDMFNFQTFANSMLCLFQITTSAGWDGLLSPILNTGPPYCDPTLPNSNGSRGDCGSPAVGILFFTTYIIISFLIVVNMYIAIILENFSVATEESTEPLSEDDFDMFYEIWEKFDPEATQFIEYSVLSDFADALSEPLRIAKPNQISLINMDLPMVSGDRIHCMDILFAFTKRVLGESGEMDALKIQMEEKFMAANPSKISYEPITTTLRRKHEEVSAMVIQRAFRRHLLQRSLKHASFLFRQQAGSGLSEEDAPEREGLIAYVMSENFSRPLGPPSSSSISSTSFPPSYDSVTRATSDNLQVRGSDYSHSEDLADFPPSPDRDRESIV
Description: as §1, §2, §3

Nav 1.7, sequence (Q15858 whole entry): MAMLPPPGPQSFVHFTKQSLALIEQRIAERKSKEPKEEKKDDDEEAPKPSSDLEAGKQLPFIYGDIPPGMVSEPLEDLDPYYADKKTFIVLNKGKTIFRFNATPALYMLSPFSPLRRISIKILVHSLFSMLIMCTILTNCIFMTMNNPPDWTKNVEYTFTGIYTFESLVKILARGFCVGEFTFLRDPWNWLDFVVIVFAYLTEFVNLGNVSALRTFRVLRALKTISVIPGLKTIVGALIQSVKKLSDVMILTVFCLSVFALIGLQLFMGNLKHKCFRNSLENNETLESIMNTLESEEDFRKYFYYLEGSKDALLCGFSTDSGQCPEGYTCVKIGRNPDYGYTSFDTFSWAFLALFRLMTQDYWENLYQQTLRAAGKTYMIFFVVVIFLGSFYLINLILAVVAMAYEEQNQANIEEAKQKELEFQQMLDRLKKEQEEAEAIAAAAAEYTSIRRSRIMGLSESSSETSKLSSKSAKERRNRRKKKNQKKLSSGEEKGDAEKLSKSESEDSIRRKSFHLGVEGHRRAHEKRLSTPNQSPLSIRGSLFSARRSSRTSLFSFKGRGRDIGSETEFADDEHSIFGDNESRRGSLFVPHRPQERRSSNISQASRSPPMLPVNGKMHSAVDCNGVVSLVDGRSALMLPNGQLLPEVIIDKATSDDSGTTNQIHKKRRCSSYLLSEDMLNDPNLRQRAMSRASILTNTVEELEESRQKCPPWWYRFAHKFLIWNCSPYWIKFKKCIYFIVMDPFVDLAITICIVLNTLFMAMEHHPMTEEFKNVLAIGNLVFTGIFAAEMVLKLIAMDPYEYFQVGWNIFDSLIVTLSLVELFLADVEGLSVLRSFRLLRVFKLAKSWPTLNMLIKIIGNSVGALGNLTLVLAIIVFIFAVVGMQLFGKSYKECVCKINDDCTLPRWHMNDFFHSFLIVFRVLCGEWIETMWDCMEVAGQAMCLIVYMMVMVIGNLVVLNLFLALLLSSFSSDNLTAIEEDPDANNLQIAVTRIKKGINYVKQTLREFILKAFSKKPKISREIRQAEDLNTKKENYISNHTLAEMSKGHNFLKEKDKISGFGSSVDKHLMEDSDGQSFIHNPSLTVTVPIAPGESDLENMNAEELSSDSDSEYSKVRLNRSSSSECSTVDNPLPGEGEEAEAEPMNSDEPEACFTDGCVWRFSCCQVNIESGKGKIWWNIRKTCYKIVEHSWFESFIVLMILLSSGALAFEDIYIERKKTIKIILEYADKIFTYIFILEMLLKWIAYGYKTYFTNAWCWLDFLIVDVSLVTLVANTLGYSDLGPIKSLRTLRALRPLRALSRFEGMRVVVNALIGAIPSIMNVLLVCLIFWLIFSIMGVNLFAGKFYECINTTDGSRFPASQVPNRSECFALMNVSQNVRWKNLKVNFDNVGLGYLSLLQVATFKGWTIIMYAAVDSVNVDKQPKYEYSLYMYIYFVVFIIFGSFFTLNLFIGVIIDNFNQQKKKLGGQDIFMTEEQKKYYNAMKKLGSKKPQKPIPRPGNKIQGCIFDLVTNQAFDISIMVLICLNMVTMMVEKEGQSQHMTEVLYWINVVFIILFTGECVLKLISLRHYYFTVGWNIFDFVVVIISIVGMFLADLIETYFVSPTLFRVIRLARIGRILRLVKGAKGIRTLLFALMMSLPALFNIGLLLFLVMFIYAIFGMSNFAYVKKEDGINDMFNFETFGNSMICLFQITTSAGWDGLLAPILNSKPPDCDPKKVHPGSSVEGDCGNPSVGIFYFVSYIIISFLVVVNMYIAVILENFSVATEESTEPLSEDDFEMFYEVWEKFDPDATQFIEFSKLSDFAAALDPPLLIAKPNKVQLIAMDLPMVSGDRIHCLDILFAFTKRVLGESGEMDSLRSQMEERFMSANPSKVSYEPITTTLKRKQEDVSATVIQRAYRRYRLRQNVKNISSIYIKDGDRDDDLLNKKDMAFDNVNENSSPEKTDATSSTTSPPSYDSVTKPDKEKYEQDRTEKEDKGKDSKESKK

| IC50 [1] [nM] | Compound | IC50 [2] [nM] |
| --- | --- | --- |
| 2680 | Cn1nccc1-c1cc(Cl)ccc1-n1cnc2cc(S(=O)(=O)Nc3ncns3)ccc21 [Example 62, 1-(4-Chloro-2-(1-Methyl-1H-Pyrazol-5-Yl)Phenyl)-N-(1,2,4-Thiadiazol-5-Yl)-1H-Benzo[D]Imidazole-5-Sulfonamide] | > 10000 |
| 50 | Cn1cc(-c2ccc(C(F)(F)F)cc2-c2ccncc2)c2ccc(S(=O)(=O)Nc3ncns3)cc21 [Example 18, 1-Methyl-3-(2-(Pyridin-4-yl)-4-(Trifluoromethyl)Phenyl)-N-(1,2,4-Thiadiazol-5-yl)-1H-Indole-6-Sulfonamide] | > 10000 |
| 269 | Cn1cc(-c2ccc(C(F)(F)F)cc2C2=CCNCC2)c2ccc(S(=O)(=O)Nc3nccs3)cc21 [Example 65, 1-Methyl-3-(2-(1,2,3,6-Tetrahydropyridin-4-Yl)-4-(Trifluoromethyl)Phenyl)-N-(Thiazol-2-Yl)-1H-Indole-6-Sulfonamide 2,2,2-Trifluoroacetate] | > 10000 |
